The assay deals with psoriasis patients. The assay is described as follows: topical testing of cleansing/topical compositions on psoriasis patients. The assay is classed as in vivo, human. Particulars: in cleansing liquid along with gentle surfactants sodium laureth sulfate and ammonium laureth sulfate; psoriasis effected patients; 5 patients. The text has this: Most of the cleansing agents contain sodium chloride and/or ammonium chloride and/or potassium chloride.
This invention is lead by desire for developing a new and innovative treatment, which can be used in the longer periods of time without side effect associated with other products. The Topical Composition given in the example being used for more than 6 months and also tested on other psoriasis patients with encouraging results.
Though the exact mechanism of action of quaternary ammonium compounds, such as ammonium chloride, and vanilla is not fully understood, actual testing on psoriasis patients have shown encouraging results without side effects associated with steroids and other presently available psoriasis topical applications.

Molecules are shown by their SMILES.

As for `[Cl-].[Na+]` [sodium chloride], the “keratolytic properties (removing scales)” value is listed as “not having keratolytic properties”. The same measure for `Cl.N` [ammonium chloride]: “showing keratolytic properties by removing scales”.

Values taken from US10179148B2, “Keratolytic composition with anti-allergic anti-inflammatory properties” (priority 2003, dated 2019).
